Read-outs that look alike come from different tables or passages of the source.
Settings: 18-membered ring

Substance: tert-butyl ((6^3S,3S,4S,Z)-3-(2,2-difluoroethoxy)-1^1-ethyl-1^2-(2-((S)-1-methoxyethyl) pyridin-3-yl)-10,10-dimethyl-5,7-dioxo-6^1,6^2,6^3,6^4,6^5,6^6-hexahydro-1^1H-8-oxa-2 (4,2)-thiazola-1 (5,3)-indola-6 (1,3)-pyridazinacycloundecaphane-4-yl) carbamate
- ring closure, isolated yield (cc_pd bond, Pd(dtbpf)Cl2/K3PO4, toluene/dioxane/H2O, 10.0 mM, 60.0 °C): 59%

Substance: tert-butyl ((6^3S,3S,4S,Z)-3-ethoxy-1^1-ethyl-1^2-(2-((S)-1-methoxyethyl) pyridin-3-yl)-10, 10-dimethyl-5,7-dioxo-6^1,6^2,6^3,6^4,6^5,6^6-hexahydro-1^1H-8-oxa-2 (4,2)-thiazola-1 (5,3)-indola-6 (1,3)-pyridazinacycloundecaphane-4-yl) carbamate
- ring closure, isolated yield (cc_pd bond, Pd(dtbpf)Cl2/K3PO4, toluene/dioxane/H2O, 26.7 mM, 60.0 °C): 31%

Substance: tert-butyl ((6^3S,4S)-2^3-((tert-butyldiphenylsilyl)oxy)-1^1-ethyl-1^2-(2-((S)-1-methoxyethyl) pyridin-3-yl)-10,10-dimethyl-5,7-dioxo-2^1,2^2,2^3,2^6,6^1,6^2,6^3,6^4,6^5,6^6-decahydro-1^1H-8-oxa-1 (5,3)-indola-6 (1,3)- pyridazina-2 (5,1)-pyridinacycloundecaphane-4-yl) carbamate
- ring closure, isolated yield (cc_pd bond, Pd(dppf)Cl2/K2CO3, toluene/1,4-dioxane/H2O 3:1:1, 20.0 mM, 65.0 °C): 42%

Substance: tert-butyl ((6^3S,4S)-25-(difluoromethyl)-1^1-ethyl-1^2-(2-((S)-1-methoxyethyl) pyridin-3-yl)-10,10-dimethyl-5,7-dioxo-6^1,6^2,6^3,6^4,6^5,6^6-hexahydro-1^1H-8-oxa-1 (5,3)-indola-6 (1,3)-pyridazina-2 (1,3)-benzenacycloundecaphane-4-yl) carbamate
- ring closure, isolated yield (ester bond, EDCI/HOBt/DIEA, DCM): 51%

Substance: tert-butyl ((6^3S,4S,Z)-1^1-ethyl-1^2-(2-((S)-1-methoxyethyl) pyridin-3-yl)-10,10-dimethyl-5,7-dioxo-6^1,6^2,6^3,6^4,6^5,6^6-hexahydro-1^1H-8-oxa-2 (2,4)-oxazola-1 (5,3)-indola-6 (1,3)-pyridazinacycloundecaphane-4-yl) carbamate
- ring closure, isolated yield (cc_pd bond, XPhos Pd G3/XPhos/K3PO4, dioxane/H2O 5:1, 55.0 mM, 70.0 °C): 56%

Substance: tert-butyl ((6^3S,4S,Z)-1^1-ethyl-1^2-(2-((S)-1-methoxyethyl) pyridin-3-yl)-21, 10, 10-trimethyl-5,7-dioxo-6^1,6^2,6^3,6^4,6^5,6^6-hexahydro-11H,21H-8-oxa-1 (5,3)-indola-6 (1,3)-pyridazina-2 (5,3)-triazolacycloundecaphane-4-yl) carbamate
- ring closure, isolated yield (cc_pd bond, XPhos Pd G3/XPhos/K3PO4, dioxane/H2O 5:1, 71.7 mM, 75.0 °C): 56.8%
